Results on 12 compounds are retold here after PubChem BioAssay (NCI).

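Cultured in 96-well plates, cells were exposed to test compound for 48 hours across five concentrations. At the GI50, growth is halved. The concentration for full growth arrest is given as TGI.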 Where only a bound is given, the exact number is not on record here.

Among the test systems are T-47D breast; MCF7 breast; A549 NSCLC; BT-549 breast; ACHN renal; NCI-H226 lung; PC-3 prostate; TK-10 renal; DU-145 prostate; KM12 colon.
Common to all, as to assay: growth of human tumour cells (NCI), 48 h

`CC1(C)CC(=O)c2c(C(F)(F)F)nn(-c3ccc(C(N)=O)c(NC4CCC(OC(=O)CN)CC4)c3)c2C1` (centres undefined): the GI50 with T-47D breast is 0.0461 µM; in the test on MCF7 breast, less than 0.0183 µM; with A549 NSCLC it was 0.0666 µM; with BT-549 breast, 5.24 µM; with ACHN renal, 0.0622 µM; in the test with NCI-H226 lung, 0.103 µM. Further, the GI50 with PC-3 prostate is 0.0688 µM; in the test on TK-10 renal, 0.0592 µM; in the test with DU-145 prostate, 0.0883 µM; in the test on KM12 colon it was 0.0434 µM. Also, the TGI in the test with T-47D breast was greater than 100 µM; with MCF7 breast, greater than 100 µM; in the test with A549 NSCLC it was 32.8 µM; in the test on BT-549 breast, 41.7 µM; in the test on ACHN renal, greater than 100 µM; in the test on NCI-H226 lung, greater than 56.4 µM. Also, the TGI with PC-3 prostate, in the test on TK-10 renal, with DU-145 prostate and in the test on KM12 colon was greater than 100 µM throughout.
Regarding `O=C1/C(=C\c2c[nH]c3ccccc23)c2ccccc2N1c1c(Cl)cccc1Cl`, the GI50 was 2.01 µM with T-47D breast; 1.74 µM in the test with MCF7 breast; 2.62 µM with A549 NSCLC; 1.6 µM with BT-549 breast; 2.4 µM in the test on ACHN renal; 1.7 µM in the test with NCI-H226 lung. The GI50 with PC-3 prostate was 1.35 µM; in the test with TK-10 renal it was 2.17 µM; with DU-145 prostate, 1.74 µM; with KM12 colon, 1.84 µM. Also, the TGI in the test with T-47D breast is 5.62 µM; in the test on MCF7 breast it was 3.76 µM; in the test on A549 NSCLC it was 7.79 µM; with BT-549 breast it was 4.07 µM; with ACHN renal it was 10.1 µM; in the test on NCI-H226 lung, 3.65 µM. Further, the TGI was determined as 2.96 µM in the test on PC-3 prostate, 5 µM in the test on TK-10 renal, 3.28 µM in the test on DU-145 prostate and 3.69 µM in the test with KM12 colon.
On to `CCCCCCCCCCC(C(=O)O)C1(C(=O)O)CCC(=O)O1` (centres undefined), for which the TGI with T-47D breast, in the test on MCF7 breast, with A549 NSCLC, with BT-549 breast, with ACHN renal and with NCI-H226 lung was greater than 100 µM throughout. Moreover, the TGI in the test on PC-3 prostate, in the test on TK-10 renal, with DU-145 prostate and with KM12 colon was greater than 100 µM in each case.
In the case of `CN1CCC(n2cnc(-c3ccc(F)cc3)c2-c2ccnc(NCCO)n2)CC1`, the GI50 with T-47D breast was greater than 25 µM; in the test with MCF7 breast, 3.78 µM; in the test with A549 NSCLC, 11.9 µM; in the test on BT-549 breast, greater than 25 µM; with ACHN renal, 12.1 µM; with NCI-H226 lung it was greater than 25 µM. Also, the GI50 was greater than 25 µM in the test with PC-3 prostate, greater than 20.3 µM with TK-10 renal, 22.3 µM in the test with DU-145 prostate and 16.7 µM in the test on KM12 colon. The TGI in the test on T-47D breast, with MCF7 breast, in the test on A549 NSCLC, in the test with BT-549 breast, in the test on ACHN renal and in the test on NCI-H226 lung was greater than 25 µM each time. Moreover, the TGI in the test with PC-3 prostate, in the test with TK-10 renal, with DU-145 prostate and in the test on KM12 colon was greater than 25 µM each time.
In the case of `CC#C[C@]1(O)CC[C@H]2[C@@H]3CCC4=CC(=O)CCC4=C3[C@@H](c3ccc4c(c3)OCO4)C[C@@]21C`, the GI50 was 45.6 µM in the test with T-47D breast; 77.2 µM in the test on MCF7 breast; 93.4 µM in the test on A549 NSCLC; 22.3 µM in the test with BT-549 breast; 47.4 µM in the test on ACHN renal; 140 µM with NCI-H226 lung. Besides, the GI50 with PC-3 prostate is 39.7 µM; in the test with TK-10 renal it was 125 µM; in the test on DU-145 prostate, 138 µM; in the test with KM12 colon it was 112 µM. The TGI with T-47D breast was 577 µM; in the test with MCF7 breast, greater than 1000 µM; in the test on A549 NSCLC it was 875 µM; in the test with BT-549 breast it was 122 µM; in the test with ACHN renal, 633 µM; in the test with NCI-H226 lung, 617 µM. Further, the TGI turned out to be 340 µM with PC-3 prostate, 461 µM with TK-10 renal, 391 µM with DU-145 prostate and 299 µM in the test with KM12 colon.
As for `O=c1cc(-c2ccccc2)[nH]c2ccccc12`, the GI50 in the test on T-47D breast is 0.468 µM; in the test on MCF7 breast it was 0.383 µM; in the test with A549 NSCLC, 1.88 µM; with ACHN renal it was 0.858 µM; with NCI-H226 lung, 7.4 µM; in the test on PC-3 prostate, 0.403 µM. For the same compound, the GI50 was 0.829 µM with DU-145 prostate and 0.464 µM in the test on KM12 colon. Further, the TGI was greater than 100 µM in the test with T-47D breast; greater than 100 µM in the test on MCF7 breast; greater than 100 µM with A549 NSCLC; greater than 52.1 µM in the test on BT-549 breast; greater than 100 µM with ACHN renal; greater than 100 µM with NCI-H226 lung. Besides, the TGI was greater than 100 µM in the test with PC-3 prostate, greater than 100 µM in the test with TK-10 renal, greater than 71.4 µM in the test with DU-145 prostate and greater than 100 µM in the test on KM12 colon.
In the case of `Cc1ccc(-c2cn3ccnc3c(-c3ccc(Cl)cc3)n2)cc1`, the GI50 in the test on T-47D breast is 8.12 µM; in the test with MCF7 breast, 0.28 µM; with A549 NSCLC it was 1.33 µM; in the test on BT-549 breast, 2.3 µM; with NCI-H226 lung, 10.3 µM; in the test on PC-3 prostate it was 0.356 µM. The GI50 in the test on TK-10 renal was 0.419 µM; with DU-145 prostate it was 0.214 µM; in the test with KM12 colon, 0.15 µM. In addition, the TGI was greater than 58.5 µM with T-47D breast; 19.2 µM with MCF7 breast; greater than 49.8 µM in the test with A549 NSCLC; 65.3 µM with BT-549 breast; 22.3 µM in the test on ACHN renal; greater than 100 µM in the test on NCI-H226 lung. In addition, the TGI with PC-3 prostate is greater than 100 µM; in the test with TK-10 renal, 24.8 µM; with DU-145 prostate, 52.9 µM; in the test on KM12 colon, 16.6 µM.
For the compound `C[C@@H]1C[C@H]2CC[C@H](O2)[C@H](C)C(=O)O[C@@H](C)C[C@@H]2CC[C@@H](O2)[C@@H](C)C(=O)O[C@H](C)C[C@H]2CC[C@H](O2)[C@H](C)C(=O)O[C@@H](C)C[C@@H]2CC[C@@H](O2)[C@@H](C)C(=O)O1`, the TGI in the test with T-47D breast is 0.857 µM; with MCF7 breast it was greater than 100 µM; in the test on A549 NSCLC, greater than 100 µM; in the test with BT-549 breast, greater than 100 µM; in the test with ACHN renal, 2.45 µM; in the test on NCI-H226 lung it was greater than 93.5 µM. Besides, the TGI with PC-3 prostate was 2.46 µM; in the test with TK-10 renal, greater than 48.5 µM; in the test with DU-145 prostate, greater than 100 µM.
For `O=C1CC(c2ccc(O)cc2)C2(O1)C(=O)OC(C(O)CO)C2O` (centres undefined), the TGI with T-47D breast, in the test on MCF7 breast, in the test on BT-549 breast, in the test on ACHN renal, with NCI-H226 lung and in the test on PC-3 prostate was greater than 100 µM in each case. Further, the TGI in the test on TK-10 renal, with DU-145 prostate and with KM12 colon was greater than 100 µM in each case.
Turning to `COc1ccc(-c2ccc(/C=N/n3c(COc4ccc(Cl)cc4Cl)nn(CN4CCOCC4)c3=S)o2)c([N+](=O)[O-])c1`, the GI50 in the test on T-47D breast is 38.6 µM; with MCF7 breast, 20.7 µM; in the test with A549 NSCLC it was 24.1 µM; with BT-549 breast, 13.2 µM; in the test with ACHN renal, 36.1 µM; in the test on PC-3 prostate, 18.6 µM. The GI50 in the test on TK-10 renal was 14.1 µM; with DU-145 prostate, greater than 100 µM; with KM12 colon it was 16.7 µM. The TGI in the test with T-47D breast was greater than 100 µM; in the test on MCF7 breast, 77.3 µM; in the test with A549 NSCLC, greater than 100 µM; in the test with BT-549 breast, 44.6 µM; in the test on ACHN renal it was greater than 100 µM; with PC-3 prostate, 50.6 µM. Further, the TGI in the test on TK-10 renal is 49.2 µM; in the test with DU-145 prostate it was greater than 100 µM; in the test with KM12 colon, 32.6 µM.
With `O=C(O)/C=C\C(=O)N1C/C(=C\c2ccccc2Cl)C(=O)/C(=C/c2ccccc2Cl)C1`, the GI50 is 4.48 µM with T-47D breast; 1.09 µM in the test with MCF7 breast; 3.01 µM in the test with A549 NSCLC; 2.06 µM in the test on BT-549 breast; 1.97 µM in the test on NCI-H226 lung; 3.56 µM with PC-3 prostate. Besides, the results for the GI50 in the test with TK-10 renal, in the test with DU-145 prostate and in the test on KM12 colon were 4.47 µM, 2.43 µM and 1.6 µM, respectively. Besides, the TGI came out at 16.2 µM in the test on T-47D breast; 10.4 µM in the test on MCF7 breast; 13 µM in the test with A549 NSCLC; 4.11 µM in the test on BT-549 breast; 3.84 µM in the test on NCI-H226 lung; 15.5 µM in the test with PC-3 prostate. Further, the TGI turned out to be 12.3 µM in the test with TK-10 renal, 5.48 µM in the test with DU-145 prostate and 3.12 µM in the test with KM12 colon.
On to `NCCOCCOCCNc1nc(Cc2ccccc2)nc(NCCCN2CCCC2=O)n1`, for which the GI50 in the test on T-47D breast, in the test on MCF7 breast, with A549 NSCLC, in the test on BT-549 breast, in the test with ACHN renal and with NCI-H226 lung was greater than 100 µM each time. The GI50 in the test with PC-3 prostate, in the test on DU-145 prostate and in the test with KM12 colon was greater than 100 µM in each case. Also, the TGI in the test with T-47D breast, with MCF7 breast, in the test with A549 NSCLC, in the test on BT-549 breast, in the test with ACHN renal and in the test with NCI-H226 lung was greater than 100 µM throughout. In addition, the TGI in the test with PC-3 prostate, with DU-145 prostate and in the test with KM12 colon was greater than 100 µM throughout.
